# Key:
# [1] = molecular target: T1, NAD-dependent protein deacetylase sirtuin-1 (Homo sapiens) (UniProt Q96EB6); test: Modulation of SIRT1 (unknown origin) expressed in Escherichia coli BL21(DE3) cells using Ac-EE-K(biotin)-GQSTSSHSK(Ac)NleSTEG-K(5TMR)-EE-NH2 as substrate after 25 mins by mass spectrometry
# T1 sequence (whole entry): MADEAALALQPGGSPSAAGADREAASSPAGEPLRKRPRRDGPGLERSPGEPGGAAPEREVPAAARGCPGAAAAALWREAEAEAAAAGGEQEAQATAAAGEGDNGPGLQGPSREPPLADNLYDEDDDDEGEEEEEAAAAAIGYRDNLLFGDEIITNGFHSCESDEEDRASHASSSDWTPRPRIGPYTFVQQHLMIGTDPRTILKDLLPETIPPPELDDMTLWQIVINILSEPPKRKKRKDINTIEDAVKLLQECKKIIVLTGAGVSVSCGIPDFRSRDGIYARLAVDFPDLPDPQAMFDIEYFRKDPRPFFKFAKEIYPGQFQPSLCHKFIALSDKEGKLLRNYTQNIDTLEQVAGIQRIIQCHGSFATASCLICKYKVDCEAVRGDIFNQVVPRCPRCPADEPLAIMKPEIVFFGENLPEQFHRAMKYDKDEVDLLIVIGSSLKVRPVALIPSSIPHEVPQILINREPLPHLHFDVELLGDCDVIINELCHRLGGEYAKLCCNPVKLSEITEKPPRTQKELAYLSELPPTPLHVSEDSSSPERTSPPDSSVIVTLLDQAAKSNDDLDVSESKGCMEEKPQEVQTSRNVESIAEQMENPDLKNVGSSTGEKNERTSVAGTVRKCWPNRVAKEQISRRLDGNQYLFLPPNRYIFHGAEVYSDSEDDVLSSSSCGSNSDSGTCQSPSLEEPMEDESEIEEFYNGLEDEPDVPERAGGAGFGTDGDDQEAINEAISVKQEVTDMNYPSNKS
# [2] = molecular target: T2, Poly [ADP-ribose] polymerase 1 (Homo sapiens, UniProt P09874); test: Inhibition of human PARP1 expressed in Escherichia coli incubated for 10 mins by colorimetric assay
# T2 sequence (P09874 whole entry): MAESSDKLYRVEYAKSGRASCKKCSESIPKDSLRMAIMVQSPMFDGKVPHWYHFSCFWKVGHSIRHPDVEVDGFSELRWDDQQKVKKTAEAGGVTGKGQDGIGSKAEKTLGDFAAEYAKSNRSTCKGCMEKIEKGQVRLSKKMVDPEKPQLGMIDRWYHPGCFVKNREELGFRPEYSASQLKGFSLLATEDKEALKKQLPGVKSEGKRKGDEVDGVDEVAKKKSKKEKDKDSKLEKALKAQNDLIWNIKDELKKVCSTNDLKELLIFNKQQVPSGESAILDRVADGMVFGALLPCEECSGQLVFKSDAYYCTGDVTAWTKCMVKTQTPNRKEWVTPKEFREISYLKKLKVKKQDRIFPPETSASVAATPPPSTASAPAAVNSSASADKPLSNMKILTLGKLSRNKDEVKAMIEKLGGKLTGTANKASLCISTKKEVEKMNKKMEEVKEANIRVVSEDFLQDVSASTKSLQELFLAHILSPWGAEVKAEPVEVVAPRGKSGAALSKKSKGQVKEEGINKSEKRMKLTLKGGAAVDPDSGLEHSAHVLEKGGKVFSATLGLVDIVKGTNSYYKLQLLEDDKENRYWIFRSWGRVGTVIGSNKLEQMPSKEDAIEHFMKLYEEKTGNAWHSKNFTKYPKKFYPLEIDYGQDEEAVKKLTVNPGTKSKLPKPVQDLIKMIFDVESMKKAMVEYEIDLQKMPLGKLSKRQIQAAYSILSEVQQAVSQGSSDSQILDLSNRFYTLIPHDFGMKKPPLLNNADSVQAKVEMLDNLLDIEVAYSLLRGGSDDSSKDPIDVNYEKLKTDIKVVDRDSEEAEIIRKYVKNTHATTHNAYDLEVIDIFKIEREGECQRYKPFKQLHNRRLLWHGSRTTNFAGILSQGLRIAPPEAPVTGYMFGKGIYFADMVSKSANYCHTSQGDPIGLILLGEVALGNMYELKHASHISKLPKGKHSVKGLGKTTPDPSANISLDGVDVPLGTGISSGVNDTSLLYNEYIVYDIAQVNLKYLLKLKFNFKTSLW
# [3] = molecular target: T2, Poly [ADP-ribose] polymerase 1; test: Inhibition of human PARP1 expressed in Escherichia coli incubated for 15 to 40 mins by ELISA
# [4] = Induction of mouse primary oligodendrocytes incubated for 16 to 24 hrs by WSTl reagent based assay; format: functional
# HUVEC = test: Induction of HUVEC proliferation incubated for 20 hrs followed by 3H thymidine incorporation and measured after 4 hrs by beta counting method; format: functional, cell-based; settings: Homo sapiens
# PC-3 = test: Cytotoxicity against human PC3 cells after 24 hrs by MTT assay; format: functional, cell-based; settings: PC-3, 24 h
# [5] = molecular target: T3, Aldo-keto reductase family 1 member B1 (Homo sapiens, UniProt P15121); test: Inhibition of human Aldose reductase
# HepG2 = test: Cytotoxicity against human HepG2 cells incubated for 48 hrs by sulforhodamine B staining based ELISA; format: functional, cell-based; settings: HepG2, 48 h
# Ehrlich = test: Antitumor activity against mouse EAC cells implanted in Swiss albino mouse assessed as reduction in tumor growth at 5 mg/kg, ip dosed daily starting 6 days after inoculation; format: functional, organism-based; settings: 144 h
# MCF7 = test: Cytotoxicity against human MCF7 cells; format: functional; settings: read-out: LC50 (the source's name)
# Mus musculus [6] = test: Anticonvulsant activity in ip dosed mouse assessed as protection against PTZ-induced seizure; format: functional
# [7] = Inhibition of human HeLa cell derived PARP preincubated for 10 mins followed by NAD and double stranded DNA-oligos addition and measured after 45 mins by scintillation counting; format: cell-based
# [8] = molecular target: Cystic fibrosis transmembrane conductance regulator (Homo sapiens, UniProt P13569, F508DEL/H148Q/I152L); test: Inhibition of human CFTR F508 deletion mutant expressed in rat FRT cells coexpressing YFP-H148Q/I152L 25,22 incubated for 60 to 120 mins in presence of forskolin by fluorescent method; format: cell-based
# Chain of Cystic fibrosis transmembrane conductance regulator (P13569 whole entry, looked up, stated change not applied): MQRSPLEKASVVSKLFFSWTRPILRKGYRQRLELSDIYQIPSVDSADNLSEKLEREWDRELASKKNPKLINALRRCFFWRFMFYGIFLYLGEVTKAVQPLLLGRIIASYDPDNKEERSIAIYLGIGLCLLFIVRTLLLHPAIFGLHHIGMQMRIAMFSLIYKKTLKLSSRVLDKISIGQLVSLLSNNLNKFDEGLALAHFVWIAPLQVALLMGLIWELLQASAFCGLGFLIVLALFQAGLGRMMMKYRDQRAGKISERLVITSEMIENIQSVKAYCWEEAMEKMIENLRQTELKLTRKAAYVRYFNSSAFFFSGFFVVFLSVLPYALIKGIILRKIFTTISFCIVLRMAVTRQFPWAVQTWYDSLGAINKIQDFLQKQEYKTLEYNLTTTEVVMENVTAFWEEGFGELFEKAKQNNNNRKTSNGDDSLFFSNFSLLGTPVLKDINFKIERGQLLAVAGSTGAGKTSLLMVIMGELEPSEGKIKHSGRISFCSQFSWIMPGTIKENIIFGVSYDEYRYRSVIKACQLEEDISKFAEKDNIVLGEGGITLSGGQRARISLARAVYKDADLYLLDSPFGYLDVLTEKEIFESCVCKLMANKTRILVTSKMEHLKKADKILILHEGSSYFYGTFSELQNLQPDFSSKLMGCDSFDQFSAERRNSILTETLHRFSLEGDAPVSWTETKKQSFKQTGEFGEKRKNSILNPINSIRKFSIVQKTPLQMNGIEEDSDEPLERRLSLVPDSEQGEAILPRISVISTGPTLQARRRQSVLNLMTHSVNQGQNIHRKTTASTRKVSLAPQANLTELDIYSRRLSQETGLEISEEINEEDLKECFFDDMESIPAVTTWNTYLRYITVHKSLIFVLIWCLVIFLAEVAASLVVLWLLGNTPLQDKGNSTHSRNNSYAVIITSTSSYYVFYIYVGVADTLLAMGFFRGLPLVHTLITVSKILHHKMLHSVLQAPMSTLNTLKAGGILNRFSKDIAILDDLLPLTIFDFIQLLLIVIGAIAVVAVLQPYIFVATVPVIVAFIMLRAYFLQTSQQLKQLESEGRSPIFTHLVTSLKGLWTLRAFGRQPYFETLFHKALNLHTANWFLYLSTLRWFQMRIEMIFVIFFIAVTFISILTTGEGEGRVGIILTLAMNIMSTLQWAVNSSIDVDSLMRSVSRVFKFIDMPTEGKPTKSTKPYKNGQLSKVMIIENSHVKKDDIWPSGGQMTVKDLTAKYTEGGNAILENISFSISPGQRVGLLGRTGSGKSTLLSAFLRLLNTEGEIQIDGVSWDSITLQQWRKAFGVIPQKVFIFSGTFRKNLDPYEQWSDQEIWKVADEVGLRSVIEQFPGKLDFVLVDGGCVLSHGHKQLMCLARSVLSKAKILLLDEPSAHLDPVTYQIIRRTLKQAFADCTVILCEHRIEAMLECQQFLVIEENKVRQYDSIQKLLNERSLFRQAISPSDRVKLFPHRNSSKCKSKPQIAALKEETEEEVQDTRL
# Mus musculus [9] = test: Antidiabetic activity in C57BL/KsJ mouse assessed as maximum reduction in blood glucose level at 200 mg/kg, po administered for 9 days by spectrometric method relative to control; format: functional; design: scale not given: the % may be the effect or the level left
# Mus musculus [10] = species on record: Mus musculus; test: animal or person; settings: ICR, ip
# Description: Anticonvulsant activity in ip dosed ICR mouse assessed as protection against 50 mA current-induced seizure pretreated for 30 mins followed by seizure induction measured for 60 mins by maximal electroshock seizure test
# Rattus norvegicus = test: In vivo inhibition of Aldose reductase in streptozotocin-induced po dosed rat model of diabetes assessed as reduction in sorbitol accumulation in sciatic nerve administered at 4,7,24 hrs and measured at 27 hrs; format: functional
# [11] = molecular target: T3, Aldo-keto reductase family 1 member B1
# Description: Inhibition of human placenta Aldose reductase
compound,measurement,setting,value
O=C(Nc1cccc2cnn(-c3cccc(OC(F)(F)F)c3)c(=O)c12)c1cccc(OCC(O)CO)n1 (centres undefined),EC1.5,[1],< 5 µM
O=C(c1cc(Cc2n[nH]c(=O)c3ccccc23)ccc1F)N1CCn2c(nnc2C2CC2)C1,IC50,[2],8.41 nM
O=C(Nc1cccc2cnn(-c3cccc(OC(F)(F)F)c3)c(=O)c12)c1cccc(CN2CCOCC2)n1,EC1.5,[1],< 5 µM
O=C(c1cc(Cc2n[nH]c(=O)c3ccccc23)ccc1F)N1CCn2cnnc2C1,IC50,[3],5000 nM
O=c1[nH]nc(-c2ccc(N3CCCCCC3)c([N+](=O)[O-])c2)c2ccccc12,EC50,[4],200 nM
same,EC50,HUVEC,2500 nM
O=c1[nH]cc(F)c(=O)[nH]1 [FLUOROURACIL],IC50,PC-3,63800 nM
O=C(c1cc(Cc2n[nH]c(=O)c3ccccc23)ccc1F)N1CC2C(=O)N(Cc3ccccc3)C(=O)C2C1 (centres undefined),IC50,[3],0.5 nM
O=C(O)Cc1nn(Cc2cc(F)cc(Br)c2)c(=O)c2ccccc12,IC50,[5],20 nM
O=C(Cn1nc(Cc2ccccc2)c2ccccc2c1=O)NNC(=S)Nc1ccccc1,IC50,HepG2,10 nM
same,IC50,Ehrlich,20 nM
CC(S)C[C@H](NC(=O)Cn1ncc2ccccc2c1=O)C(N)=O (some centres undefined),CC50,MCF7,20300 nM
O=C(Nc1cccc2cnn(-c3cccc(C(F)(F)F)c3)c(=O)c12)c1cscn1,EC1.5,[1],< 5 µM
O=C1CCC(=O)N1c1cccc(Cc2n[nH]c(=O)c3ccccc23)c1,ED50,Mus musculus [6],0.0016 µmol/kg
same,IC50,[7],< 3 nM
Cc1nc2ccc(N(C)C(=O)Cn3nc(-c4cccc(Cl)c4)c4ccccc4c3=O)cc2o1,EC50,[8],< 10000 nM
O=C(Nc1cccc2cnn(-c3cccc(C(F)(F)F)c3)c(=O)c12)c1cccc(CN2CCOCC2)n1,EC1.5,[1],< 5 µM
CC1NC(=O)N(c2cccc(Cc3n[nH]c(=O)c4ccccc34)c2)C1=O (centres undefined),IC50,[7],5 nM
O=C(c1cc(Cc2n[nH]c(=O)c3ccccc23)ccc1F)N1CCN(c2ccccn2)CC1,IC50,[7],3 nM
O=C(O)Cc1nn(Cc2nc3cc(C(F)(F)F)ccc3s2)c(=O)c2cc3ccccc3cc12,IC50,[5],46 nM
Cc1nn(CCOc2ccc(CC3SC(=O)NC3=O)cc2)c(=O)c2ccccc12 (centres undefined),Activity,Mus musculus [9],<=61%
O=C(Nc1cccc2cnn(-c3cccc(C(F)(F)F)c3)c(=O)c12)c1cnccn1,EC1.5,[1],< 5 µM
COC1CCN(C(=O)c2cc(Cc3n[nH]c(=O)c4ccccc34)ccc2F)CC1 [AZD2461],IC50,[7],5 nM
O=C(O)CSc1nnc(Cn2[nH]c(=O)c3ccccc3c2=O)o1,ED50,Mus musculus [10],184 µmol/kg
O=C(O)Cc1nn(Cc2nc3cc(F)cc(F)c3o2)c(=O)c2ccccc12,ED50,Rattus norvegicus,5.6 mg/kg
same,IC50,[11],3.2 to 52 nM
CN1CC(=O)N(c2cccc(Cc3n[nH]c(=O)c4ccccc34)c2)C1=O,ED50,Mus musculus [6],0.00166 µmol/kg
same,IC50,[7],< 10 nM
O=C(c1cc(Cc2n[nH]c(=O)c3ccccc23)cc2c1OCC2)N1CCn2c(nnc2C(F)(F)F)C1,IC50,[3],1.7 nM
